{"source": "patent US20250044246A1", "about": "“NUCLEAR MAGNETIC RESONANCE METHODS OF DETERMINING HOMEOSTATIC PERTURBATIONS” (The United States of America, as represented by the …, priority 2021, published 2025)", "key": {"[1]": {"test_system": "viable \"live\" ex vivo neonatal mouse spinal cords", "test": "Real-time SG diffusion and SG-DEXSY measurements on viable spinal cords (Example 3)", "assay_type": "cell-based", "method": "MR measurements were performed on viable “live” ex vivo neonatal mouse spinal cords at 13.79 MHz with a low-field single-sided magnet (PM-10 NMR MOUSE, Magritek) (Eidmann, et al., Journal of Magnetic Resonance, Series A, 122(1): 104-109 (1996)) and custom-made RF probe and solenoid coil (see FIG. 29). Diffusion was encoded on sub-micron length scales and sub-millisecond timescales with spin echoes in the presence of a g=15.3 T/m static gradient (SG) (Williamson, et al., Proceedings of the 28th annual International Society of Magnetic Resonance in Medicine (ISMRM) (2020)). SG diffusion measurements (Williamson, et al., Elife, 8: p. e51101 (2019)) and SG diffusion exchange spectroscopy (DEXY)-based exchange rate and spin-lattice relaxation rate measurements (as in Williamson, et al., Journal of Magnetic Resonance, 317: 106782 (2020)), with b1+b2=4.5 ms/μm^2) were repeatedly acquired (11 minutes per set) to observe real-time changes. During measurements, samples were maintained in a constant circulation of artificial cerebrospinal fluid (ACF) and gas and at 25° C."}, "[2]": {"test_system": "ex vivo neonatal mouse spinal cords", "test": "Multiexponential analysis of DEXSY exchange time distribution P(τk) (Example 5)", "assay_type": "cell-based", "conditions": "100 μM ouabain, 25° C., live tissue", "method": "The probability distribution functions of the exchange time were measured, P(τk)=P(1/k) by applying multi exponential analysis using numerical inverse Laplace transforms (ILTs) to data in which the effect of exchange has been isolated. Using a low-field, static gradient system, P(τk) data were acquired from ex vivo neonatal mouse spinal cords in three conditions: fixed, live, and live whilst treated with ouabain, a sodium-potassium pump inhibitor.\nThe static gradient DEXSY (SG-DEXSY) pulse sequence was implemented on a PM-10 NMR MOUSE single-sided magnet at ω0=13.79 MHz, B0=0.3239 T, g=15.3 T/m with a home-built solenoid RF coil and test chamber. 90°/180° RF pulse lengths=2/2 μs, pulse powers=−22/−16 dB, TR=2 s, 8000 echo CPMG train with TE=25 μs, 8 points per echo, and 0.5 μs dwell time.\nLive (i.e., viable) and fixed ex vivo neonatal (postnatal day 1-4) mouse spinal cords were studied. Spinal cords were bathed in artificial cerebrospinal fluid at 95% O2/5% CO2 and 25° C. For the ouabain treatment condition, ouabain was added at a saturating concentration of 100 μM.\nData were acquired at bs=4.5 ms/μm^2 over 69 values of tm=0.2-1000 ms. A biexponential fit to the log-ratio of signals was first performed to yield robust estimates of the intercept C0 and limit f∞/C1 (FIGS. 35A-35D). […]"}, "[3]": {"test_system": "live ex vivo neonatal mouse spinal cords", "test": "Real-time DEXSY NMR water exchange rate and R1 DW on live spinal cords (Example 1)", "assay_type": "cell-based", "conditions": "100 μM ouabain", "method": "(§1) All experiments were performed on Swiss Webster wild type (Taconic Biosciences, Rensselaer, NY, USA) mice between postnatal day 1 to 4. The mouse spinal cords were isolated and placed in a dissecting chamber perfused with cold low-calcium high magnesium artificial cerebrospinal fluid (aCSF, concentrations in mM: 128.35 NaCl, 4 KCl, 0.5 CaCl2·2H2O, 6 MgSO4·7H2O, 0.58 NaH2PO4·H2O, 21 NaHCO3, 30 D-glucose) bubbled with 95% O2 and 5% CO2). Live spinal cords were transported in low-calcium, high-magnesium aCSF to the NMR experimental apparatus. Fixed spinal cords were kept overnight in 4% paraformaldehyde at 4° C. and then stored in phosphate buffered saline (PBS) at 4° C., and washed with aCSF three times over the course of two days to remove any residual paraformaldehyde prior to experiments. Experiments on fixed and live spinal cords were performed using normal aCSF (same concentrations as the low-calcium high-magnesium solution except for 1.5 mM CaCl2·2H2O and 1 mM MgSO4·7H2O).\nA PM 10 NMR MOUSE single-sided permanent magnet (Eidmann, et al., Journal of Magnetic Resonance, 122: 104-109 (1996)) (Magritek, Aachen Germany) and a Kea 2 spectrometer (Magritek, Wellington, New Zealand) were used to perform NMR experiments at B0=0.3239 T (proton ω0=13.79 MHz) and […]. A test chamber and RF probe were fabricated to maximize SNR and maintain live spinal cord viability.\nSample temperature was controlled by heat exchange with one of two circulating water baths (Accel 250 LC, Thermo Scientific, USA, and WCR-P6 Precision Regulated Bath Circulator, Daihan Scientific, Lennox Laboratory supplies, Ireland). […] Sample temperature was monitored by a fiber optic sensor (PicoM, Opsens Solutions Inc., Quebec, Canada). […]\nExperimental protocols involved looping through sets of diffusion experiments and rapid DEXSY experiments to acquire repetitions of each. Noise and RF probe tuning were monitored at the beginning of each loop. […]\n(§2) to estimate the restriction radius r and the restricted fraction f. Each estimate incorporated k measured from the rapid exchange experiment during the same set. […]"}, "organotypic CNS": {"test_system": "organotypic CNS", "conditions": "after blocking Na+/K+ pump with ouabain; cited from earlier work"}, "[4]": {"test_system": "live ex vivo neonatal mouse spinal cords", "test": "Static-gradient spin echo diffusion NMR (ADCy, restricted fraction f) on live spinal cords (Example 1)", "assay_type": "cell-based", "method": "as §1\nThe same experimental conditions were used for live and fixed spinal cords. […]\nDiffusion experiments were performed using a standard sequence involving a spin echo (SE) for diffusion encoding followed by a CPMG signal acquisition (Rata, et al., Journal of Magnetic Resonance, 180(2): 229-235 (2006). τ (defined as half the SE echo time) was varied linearly from 0.05 to 3.3 ms over 22 steps with 4 scans per τ. This corresponds to b-values ranging from 0.001 to 400 ms/μm^2 where b=2/3γ^2g^2τ^3 (Carr, et al., Physical Review, 94(3): 630 (954), Hahn, Physical Review, 80(4): 580 (1950)). Points two through four (τ=0.2048 to 0.5143 ms, b=0.096 to 1.5 ms/μm^2) of diffusion data were fit with I(b)=I0 exp(−b ADC) to estimate the Apparent Diffusion Coefficient and I0. For measurements on spinal cords, the term ADCy is used, acknowledging that diffusion may be anisotropic but was measured only in the y direction, perpendicular to the cord. […]\nas §2"}, "Na+/K+-ATPase": {"test_system": "Na+/K+-ATPase", "conditions": "cited from earlier work"}, "live spinal cords": {"test_system": "live spinal cords", "test": "Osmolarity perturbation with sucrose, diffusion and DEXSY NMR on live spinal cords", "assay_type": "cell-based, mouse", "conditions": "+300 mM sucrose, live samples", "method": "as §1, with “MgSO4·7H2O). […]” for “MgSO4·7H2O).”\nas §2"}, "fixed spinal cords": {"test_system": "fixed spinal cords", "test": "Osmolarity perturbation with sucrose, diffusion and DEXSY NMR on fixed spinal cords", "parameters": "species or system mouse", "method": "as §1\nDiffusion experiments were performed using a standard sequence involving a spin echo (SE) for diffusion encoding followed by a CPMG signal acquisition (Rata, et al., Journal of Magnetic Resonance, 180(2): 229-235 (2006). τ (defined as half the SE echo time) was varied linearly from 0.05 to 3.3 ms over 22 steps with 4 scans per τ. This corresponds to b-values ranging from 0.001 to 400 ms/μm^2 where b=2/3γ^2g^2τ^3 (Carr, et al., Physical Review, 94(3): 630 (954), Hahn, Physical Review, 80(4): 580 (1950)). Points two through four (τ=0.2048 to 0.5143 ms, b=0.096 to 1.5 ms/μm^2) of diffusion data were fit with I(b)=I0 exp(−b ADC) to estimate the Apparent Diffusion Coefficient and I0. For measurements on spinal cords, the term ADCy is used, acknowledging that diffusion may be anisotropic but was measured only in the y direction, perpendicular to the cord.\nas §2"}, "[5]": {"conditions": "normal vs +300 mM sucrose, n=2 fixed samples"}}, "note": "“And” between values parts separate entries of the source, which are not always exact repeats. Identical values can stand only once. “Also recorded” adds a separate entry of the source."}
{"smiles": "Cc1onc(O)c1CC(N)C(=O)O", "note": "(stereo not drawn) [AMPA, α-amino-3-hydroxy-5-methyl-4-isoxazolepropionic acid]", "values": [{"measurement": "effect on exchange rate", "setting": "[1]; 5 μM and 10 μM AMPA, n=5", "result": "decreases; also recorded: causes exchange rate to decrease"}, {"measurement": "reversibility of the effect on washout", "setting": "[1]; AMPA washed out", "result": "recovers upon washout; also recorded: reversible"}, {"measurement": "effect of a second dose on exchange rate", "setting": "[1]; second dose of AMPA", "result": "less of an effect"}]}
{"smiles": "C[C@@H]1O[C@@H](O[C@H]2C[C@@H](O)[C@]3(CO)[C@H]4[C@H](O)C[C@]5(C)[C@@H](C6=CC(=O)OC6)CC[C@]5(O)[C@@H]4CC[C@]3(O)C2)[C@H](O)[C@H](O)[C@H]1O", "note": "[ouabain]", "values": [{"measurement": "exchange rate after completely blocking Na+/K+ pump", "setting": "[1]; 100 μM ouabain", "result": 50, "unit": "s⁻¹"}, {"measurement": "mean apparent diffusion coefficient", "setting": "[1]; 100 μM ouabain", "result": "increases"}, {"measurement": "restricted volume", "setting": "[1]; 100 μM ouabain", "result": "increases"}, {"measurement": "spin lattice relaxation rate", "setting": "[1]; 100 μM ouabain", "result": "decreases"}, {"measurement": "time until effect after ouabain hits the sample", "setting": "[1]; 100 μM ouabain", "result": "roughly 10 minutes"}, {"measurement": "timescale from no effect to full effect", "setting": "[1]; 100 μM ouabain", "result": "roughly 2 minutes"}, {"measurement": "decrease in water exchange rate", "setting": "[1]; 100 μM ouabain, n=3", "result": 67, "unit": "%"}, {"measurement": "increase in relative cell volume", "setting": "[1]; 100 μM ouabain, n=3", "result": 27, "unit": "%"}, {"measurement": "dose dependence of effect on exchange rate", "setting": "[1]; 1-10 μM vs 100 μM ouabain", "result": "dose-independent effect; also recorded: all-or-none fashion"}, {"measurement": "exchange rate after partially blocking Na+/K+ pump", "setting": "[1]; doses as low as 1 μM ouabain, after a delay", "result": 50, "unit": "s⁻¹"}, {"measurement": "normalized restricted volume", "setting": "[1]; low (1-10 μM) doses of ouabain", "result": "not affected"}, {"measurement": "time until effect after hitting the sample", "setting": "[1]; low (1-10 μM) doses of ouabain, n=5", "result": "> 10", "unit": "min"}, {"measurement": "faster peak of exchange time distribution P(τk)", "setting": "[2]", "result": "reduced"}, {"measurement": "time until ouabain took effect after treatment", "setting": "[3]", "result": "roughly 10 minutes"}, {"measurement": "exchange rate k after ouabain addition", "setting": "[3]; 25° C., n=3, mean (±SD), normal k=140 s^−1", "result": "36 s⁻¹ and 36 ± 11 s⁻¹"}, {"measurement": "decrease of diffusion weighted spin-lattice relaxation rate R1 DW", "setting": "[3]; n=3", "result": "8±3", "unit": "%"}, {"measurement": "decrease of steady-state transmembrane water exchange rate", "setting": "organotypic CNS", "result": 50, "unit": "%"}, {"measurement": "decrease of apparent diffusion coefficient", "setting": "[4]; 100 μM ouabain, n=3", "result": "9±1", "unit": "%"}, {"measurement": "increase of restricted water fraction f", "setting": "[4]; 100 μM ouabain, n=3", "result": "22±6", "unit": "%"}, {"measurement": "ADCy", "setting": "[4]; ouabain-treated spinal cords, mean±SD, n=3, 25° C.", "result": "0.954±0.045", "unit": "μm^2/ms"}, {"measurement": "reduction of Na+/K+-ATPase activity", "setting": "Na+/K+-ATPase; 100 μM ouabain", "result": 65, "unit": "%"}, {"measurement": "further increase of the effect on Na+/K+-ATPase activity", "setting": "Na+/K+-ATPase; doses higher than 100 μM ouabain", "result": 6, "unit": "%"}]}
{"smiles": "OC[C@H]1O[C@@](CO)(O[C@H]2O[C@H](CO)[C@@H](O)[C@H](O)[C@H]2O)[C@@H](O)[C@@H]1O", "note": "[sucrose]", "values": [{"measurement": "exchange rate recovered to, in ouabain-treated state", "setting": "[1]; 100 mM sucrose added in ouabain-treated state (5 μM ouabain, FIG. 21), from 50 s^−1", "result": 150, "unit": "s⁻¹"}, {"measurement": "effect on exchange rate in normal conditions", "setting": "[1]; 100 mM sucrose, normal aCSF", "result": "small effect"}, {"measurement": "change of ADCy", "setting": "live spinal cords", "result": "increases ADCy significantly"}, {"measurement": "change of ADCy", "setting": "fixed spinal cords; +300 mM sucrose, fixed samples", "result": "increases negligibly"}, {"measurement": "change in exchange rate k", "setting": "fixed spinal cords; [5]", "result": "no change"}, {"measurement": "change in restricted fraction", "setting": "fixed spinal cords; [5]", "result": "insignificant"}]}
